According to PubChem BioAssay AID1259407 (Chemical Carcinogenesis Research Information System (CCRIS), 2018):
The source made the active and inactive calls. No rule for the calls is given here.

Tested on: CCRIS mutagenicity, Ames/micronucleus/aberration tests
Test: CCRIS mutagenicity studies

Question: How did the mutagenic call (Test System: AMES SALMONELLA TYPHIMURIUM, Strain/Indicator: TA100, Metabolic Activation: S-9, Method: PREINCUBATION) turn out when `Nc1cccc(N)c1` was run?
Answer: Its mutagenic call is “active; positive”.

Question: What about the mutagenic call (Test System: AMES SALMONELLA TYPHIMURIUM, Strain/Indicator: TA1535, Metabolic Activation: HAMSTER, LIVER, S-9, AROCLOR 1254 (10%), Method: PREINCUBATION) of the same molecule?
Answer: The mutagenic call was “inactive; negative”.

Question: And the mutagenic call (Test System: AMES SALMONELLA TYPHIMURIUM, Strain/Indicator: TA1535, Metabolic Activation: HAMSTER, LIVER, S-9, AROCLOR 1254 (30%), Method: PREINCUBATION)?
Answer: Its mutagenic call is “active; positive”.

Question: What about the mutagenic call (Test System: AMES SALMONELLA TYPHIMURIUM, Strain/Indicator: TA1535, Metabolic Activation: NONE, Method: PREINCUBATION) of the same molecule?
Answer: Its mutagenic call is “inactive; negative”.

Question: What about the mutagenic call (Test System: AMES SALMONELLA TYPHIMURIUM, Strain/Indicator: TA1535, Metabolic Activation: RAT, LIVER, S-9, AROCLOR 1254 (5%), Method: PREINCUBATION) of the same molecule?
Answer: Its mutagenic call is “active; positive”.

Question: What about the mutagenic call (Test System: AMES SALMONELLA TYPHIMURIUM, Strain/Indicator: TA1535, Metabolic Activation: RAT, LIVER, S-9, AROCLOR 1254 (30%), Method: PREINCUBATION) of the same molecule?
Answer: The mutagenic call was “inactive; negative”.

Question: What about the mutagenic call (Test System: AMES SALMONELLA TYPHIMURIUM, Strain/Indicator: TA1537, Metabolic Activation: RAT, LIVER, S-9, AROCLOR 1254 (4 OR 10%), Method: STANDARD PLATE) of the same molecule?
Answer: The mutagenic call was “active; positive”.

Question: And the mutagenic call (Test System: AMES SALMONELLA TYPHIMURIUM, Strain/Indicator: TA1538, Metabolic Activation: RAT, LIVER, S-9, AROCLOR 1254 (4 OR 10%), Method: STANDARD PLATE)?
Answer: The mutagenic call was “active; positive”.

Question: What about the mutagenic call (Test System: AMES SALMONELLA TYPHIMURIUM, Strain/Indicator: TA1538, Metabolic Activation: RAT, LIVER, S-9, PHENOBARBITAL, Method: STANDARD PLATE) of the same molecule?
Answer: Its mutagenic call is “active; positive”.

Question: And the mutagenic call (Test System: AMES SALMONELLA TYPHIMURIUM, Strain/Indicator: YG1021, Metabolic Activation: RAT, LIVER, S-9, PHENOBARBITAL AND 5,6-BENZOFLAVONE, Method: PREINCUBATION)?
Answer: Its mutagenic call is “active; positive”.

Question: And the mutagenic call (Test System: AMES SALMONELLA TYPHIMURIUM, Strain/Indicator: YG1024, Metabolic Activation: CELL-FREE PLANT MIXTURE TX1MX, Method: PREINCUBATION)?
Answer: The mutagenic call was “active; positive”.

Question: And the mutagenic call (Test System: AMES SALMONELLA TYPHIMURIUM, Strain/Indicator: YG1024, Metabolic Activation: NONE, Method: PREINCUBATION)?
Answer: The mutagenic call was “inactive; negative”.

Question: And the mutagenic call (Test System: AMES SALMONELLA TYPHIMURIUM, Strain/Indicator: YG1024, Metabolic Activation: NONE, Method: STANDARD PLATE)?
Answer: Its mutagenic call is “inactive; negative”.

Question: What about the mutagenic call (Test System: AMES SALMONELLA TYPHIMURIUM, Strain/Indicator: YG1024, Metabolic Activation: PLANT (PERSEA AMERICANA) S-117, Method: STANDARD PLATE) of the same molecule?
Answer: The mutagenic call was “active; positive”.

Question: And the mutagenic call (Test System: AMES SALMONELLA TYPHIMURIUM, Strain/Indicator: YG1024, Metabolic Activation: PLANT (ZEA MAYS) S-9, Method: STANDARD PLATE)?
Answer: Its mutagenic call is “active; positive”.

Question: And the mutagenic call (Test System: AMES SALMONELLA TYPHIMURIUM, Strain/Indicator: YG1024, Metabolic Activation: RAT LIVER S-9, AROCLOR 1254, Method: STANDARD PLATE)?
Answer: Its mutagenic call is “active; positive”.

Question: What about the mutagenic call (Test System: AMES SALMONELLA TYPHIMURIUM, Strain/Indicator: YG1024, Metabolic Activation: RAT LIVER S-9, Method: STANDARD PLATE) of the same molecule?
Answer: Its mutagenic call is “active; positive”.

Question: What about the mutagenic call (Test System: AMES SALMONELLA TYPHIMURIUM, Strain/Indicator: YG1024, Metabolic Activation: RAT, LIVER, S-9, PHENOBARBITAL AND 5,6-BENZOFLAVONE, Method: PREINCUBATION) of the same molecule?
Answer: Its mutagenic call is “active; positive”.

Question: What about the mutagenic call (Test System: AMES SALMONELLA TYPHIMURIUM, Strain/Indicator: YG1024, Metabolic Activation: TOBACCO, TX1 CELLS, Method: PREINCUBATION) of the same molecule?
Answer: Its mutagenic call is “active; positive”.

Question: What about the mutagenic call (Test System: AMES SALMONELLA TYPHIMURIUM, Strain/Indicator: YG1029, Metabolic Activation: NONE, Method: STANDARD PLATE) of the same molecule?
Answer: Its mutagenic call is “inactive; negative”.

Question: And the mutagenic call (Test System: AMES SALMONELLA TYPHIMURIUM, Strain/Indicator: YG1029, Metabolic Activation: PLANT (PERSEA AMERICANA) S-117, Method: STANDARD PLATE)?
Answer: Its mutagenic call is “inactive; negative”.

Question: What about the mutagenic call (Test System: AMES SALMONELLA TYPHIMURIUM, Strain/Indicator: YG1041, Metabolic Activation: RAT, LIVER, S-9, PHENOBARBITAL AND 5,6-BENZOFLAVONE, Method: PREINCUBATION) of the same molecule?
Answer: Its mutagenic call is “active; positive”.

Question: And the mutagenic call (Test System: Ames Salmonella typhimurium, Strain/Indicator: TA98, Metabolic Activation: None, Method: Preincubation)?
Answer: The mutagenic call was “inactive; negative”.

Question: What about the mutagenic call (Test System: Ames Salmonella typhimurium, Strain/Indicator: TA98, Metabolic Activation: Rat, Liver, S9, Sodium phenobarbital and 5,6-benzoflavone (10%), Method: Preincubation) of the same molecule?
Answer: Its mutagenic call is “active; positive”.

Question: What about the mutagenic call (Test System: Ames Salmonella typhimurium, Strain/Indicator: TA100, Metabolic Activation: None, Method: Preincubation) of the same molecule?
Answer: The mutagenic call was “inactive; negative”.

Question: And the mutagenic call (Test System: Ames Salmonella typhimurium, Strain/Indicator: TA100, Metabolic Activation: Rat, Liver, S9, Sodium phenobarbital and 5,6-benzoflavone (10%), Method: Preincubation)?
Answer: The mutagenic call was “inactive; negative”.

Question: What about the mutagenic call (Test System: Ames Salmonella typhimurium, Strain/Indicator: TA100, Metabolic Activation: Rat, Liver, S9, Sodium phenobarbital and 5,6-benzoflavone, Method: Preincubation) of the same molecule?
Answer: The mutagenic call was “inactive; positive (repeat assay negative)”.

Question: What about the mutagenic call (Test System: Ames Salmonella typhimurium, Strain/Indicator: TA1535, Metabolic Activation: None, Method: Preincubation) of the same molecule?
Answer: Its mutagenic call is “inactive; negative”.

Question: And the mutagenic call (Test System: Ames Salmonella typhimurium, Strain/Indicator: TA1535, Metabolic Activation: Rat, Liver, S9, Sodium phenobarbital and 5,6-benzoflavone (10%), Method: Preincubation)?
Answer: Its mutagenic call is “inactive; negative”.

Question: And the mutagenic call (Test System: Ames Salmonella typhimurium, Strain/Indicator: TA1537, Metabolic Activation: None, Method: Preincubation)?
Answer: Its mutagenic call is “inactive; negative”.

Question: What about the mutagenic call (Test System: Ames Salmonella typhimurium, Strain/Indicator: TA1537, Metabolic Activation: Rat, Liver, S9, Sodium phenobarbital and 5,6-benzoflavone (10%), Method: Preincubation) of the same molecule?
Answer: The mutagenic call was “active; positive”.

Question: And the mutagenic call (Test System: E. coli, Strain/Indicator: WP2uvrA/pKM101, Metabolic Activation: None, Method: Preincubation)?
Answer: Its mutagenic call is “inactive; negative”.

Question: And the mutagenic call (Test System: E. coli, Strain/Indicator: WP2uvrA/pKM101, Metabolic Activation: Rat, Liver, S9, Sodium phenobarbital and 5,6-benzoflavone (10%), Method: Preincubation)?
Answer: Its mutagenic call is “inactive; negative”.

Question: What about the mutagenic call (Test System: UDS RODENT HEPATOCYTES, Strain/Indicator: THY INCORP (NON-S-PHASE), Metabolic Activation: NONE, Method: AUTORADIOGRAPHY) of the same molecule?
Answer: Its mutagenic call is “inactive; negative”.
